From the PolyMetriX glass transition set
± gives the standard deviation of the reports.

| SMILES | glass transition temperature |
| --- | --- |
| *c1ccc(Oc2ccc(N3C(=O)c4ccc(P(=O)(c5ccccc5)c5ccc6c(c5)C(=O)N(*)C6=O)cc4C3=O)cc2)cc1 (repeat unit) | 318.00 °C |
| *Oc1ccc(S(=O)(=O)c2ccc(OC(=O)OC3C(C)(C)C(OC(*)=O)C3(C)C)cc2)cc1 (repeat unit) | 162.00 °C |
| */C(C#N)=C/c1cc(OCCCCCCCCCCCCCCCC)c(/C=C(\C#N)c2cc(OCCCCCCCCCCCCCCCC)c(*)cc2OC)cc1OC (repeat unit) | 190.00 °C |
| *CC(*)c1ccc(OC)cc1 (repeat unit) [Poly(p-methoxy styrene) ] | 89 ± 12 °C |
| *Nc1cc(NC(=O)c2cc(OCCCS(=O)(=O)c3ccc(/N=N/c4ccc(N(C)C)cc4)cc3)cc(C(*)=O)c2)cc(C(=O)OCCCN(C)c2ccc(/N=N/c3ccc(S(C)(=O)=O)cc3)cc2)c1 (repeat unit) | 166.00 °C |
| *C(=O)Nc1cccc(NC(=O)c2ccc3c(c2)C(=O)N(c2ccc(Oc4ccc(C5(c6ccc(Oc7ccc(N8C(=O)c9ccc(*)cc9C8=O)cc7)cc6)NC(=O)c6ccccc65)cc4)cc2)C3=O)c1 (repeat unit) | 328.00 °C |
| *CCCN1C(=O)c2ccc(C(c3ccc4c(c3)C(=O)N(*)C4=O)(C(F)(F)F)C(F)(F)F)cc2C1=O (repeat unit) | 190.00 °C |
| *c1ccc(-c2sc(-c3cc(SCCCCCCCC)c(*)s3)cc2SCCCCCCCC)cc1 (repeat unit) | 55.30 °C |
| *C(=O)OCCN(CCOC(=O)c1ccc2c(c1)C(=O)N(c1c(C)cc(Cc3cc(C)c(N4C(=O)c5ccc(*)cc5C4=O)c(C)c3)cc1C)C2=O)c1ccc(/N=N/c2ccc([N+](=O)[O-])cc2)cc1 (repeat unit) | 179.00 °C |
| *CCCCCCCCCCC(Cl)C(*)Cl (repeat unit) | -32.00 °C |
| *NC(C)CCC(C)(C)CCCNC(=O)c1ccc(C(*)=O)cc1 (repeat unit) | 150.00 °C |
| *CC(*)(C)C(=O)OCC1(CC)COC1 (repeat unit) | 105.00 °C |
| *Oc1ccc(-c2ccc(Oc3ccc(Oc4cc(Oc5ccc(*)cc5)ccc4CCCCCC)cc3)c3ccccc23)c2ccccc12 (repeat unit) | 150.00 °C |
| *c1ccc(Oc2ccc3ccccc3c2-c2c(Oc3ccc(N4C(=O)c5ccc(NC(=O)Nc6ccc(Oc7ccccc7-c7ccccc7Oc7ccc(NC(=O)Nc8ccc9c(c8)C(=O)N(*)C9=O)cc7)cc6)cc5C4=O)cc3)ccc3ccccc23)cc1 (repeat unit) | 285.00 °C |
| *CC(*)(C)C(=O)OCCCCC (repeat unit) | 10.00 °C |
| *Nc1cc(NC(=O)c2ccc3cc(C(*)=O)ccc3c2)cc(C(=O)OCCOc2ccc(/C=C/C(=O)c3ccccc3)cc2)c1 (repeat unit) | 247.00 °C |
| *C(=O)c1ccc2c(c1)C(=O)N(c1cc(OCCCC)cc(N3C(=O)c4ccc(*)cc4C3=O)c1)C2=O (repeat unit) | 244.00 °C |
| *O[Si](C)(C)O[Si](C)(C)c1c(F)c(F)c(F)c([Si](*)(C)C)c1F (repeat unit) | -61.00 °C |

Other lines, results leading:

| glass transition temperature | SMILES |
| --- | --- |
| 197.00 °C | *c1ccc(Oc2ccc(Oc3ccc(N4C(=O)c5ccc(Oc6ccccc6Oc6ccc7c(c6)C(=O)N(*)C7=O)cc5C4=O)cc3C(F)(F)F)cc2)c(C(F)(F)F)c1 (repeat unit) |
| 230.50 °C | *Oc1ccc2c(c1)C(C)(c1ccc(OC(=O)c3cccc(C(*)=O)c3)cc1)CC2(C)C (repeat unit) |
| 61.00 °C | *C1C(=O)N(CCCCCCCOc2ccc(-c3ccc(C#N)cc3)cc2)C(=O)C1* (repeat unit) |
| 312.00 °C | *C(=O)Nc1cccc(C(=O)Nc2cccc(NC(=O)c3ccc4[nH]c(-c5ccc(-c6nc7cc(*)ccc7[nH]6)cc5)nc4c3)c2)c1 (repeat unit) |
| 339.00 °C | *c1ccc(Cc2cccc(-n3c(=O)c4cc5c(=O)n(*)c(=O)c5cc4c3=O)c2)cc1 (repeat unit) |
| 132.50 °C | *CC(O)COc1ccc(S(=O)(=O)c2ccc(O*)c(C)c2)cc1C (repeat unit) |
| 237.00 °C | *C(=O)Nc1ccc(Oc2ccccc2-c2ccccc2Oc2ccc(NC(=O)c3ccc4c(c3)C(=O)N(c3cccc(N5C(=O)c6ccc(*)cc6C5=O)c3)C4=O)cc2)cc1 (repeat unit) |
| 117.00 °C | *c1ccc(Oc2ccc(-c3csc(/N=C/c4ccc(OCCCCCCOc5ccc(/C=N/c6nc(*)cs6)cc5)cc4)n3)cc2)cc1 (repeat unit) |
| 265.00 °C | *c1ccc([Si](c2ccccc2)(c2ccccc2)c2ccc(-c3nnc(-c4cccc(-c5nnc(*)o5)n4)o3)cc2)cc1 (repeat unit) |
| 25.00 °C | *Oc1ccccc1C(=O)OC(=O)c1ccccc1OC(=O)CCCCCCCC(*)=O (repeat unit) |
| -7.00 °C | *CCCCCCOC(=O)CCCCCNC(=O)CCCCC(=O)NCCCCCC(=O)O* (repeat unit) |
| 301.00 °C | *c1ccc2oc(-c3cccc(-c4nc5cc(C(*)(C(F)(F)F)C(F)(F)F)ccc5o4)c3)nc2c1 (repeat unit) |
| 325.00 °C | *C(=O)c1ccc2nc(-c3ccccc3)c(-c3ccc(-c4nc5cc(*)ccc5nc4-c4ccccc4)cc3)nc2c1 (repeat unit) |
| 215.00 °C | *Oc1ccc(C2(c3ccc(OC(=O)CCC(*)=O)cc3)c3cc(N(C)C)ccc3-c3ccc([N+](=O)[O-])cc32)cc1 (repeat unit) |
| 49.00 °C | *CCCCCCCCCCCOC(=O)c1ccc(-c2ccc(C(=O)O*)cc2)cc1 (repeat unit) |
| 98.00 °C | *Oc1c(-c2ccccc2)cc(-c2cc(-c3ccccc3)c(OC(=O)CCCCCCCCC(*)=O)c(-c3ccccc3)c2)cc1-c1ccccc1 (repeat unit) |
| 250.00 °C | *C(=O)Nc1ccc(C(c2ccc(NC(=O)c3ccc4c(c3)C(=O)N(c3ccc(-c5ccc(N6C(=O)c7ccc(*)cc7C6=O)c(OC)c5)cc3OC)C4=O)cc2)(C(F)(F)F)C(F)(F)F)cc1 (repeat unit) |
| 165.00 °C | */C=C/c1ccc2c(c1)C(CC(CC)CCCC)(CC(CC)CCCC)c1cc(*)ccc1-2 (repeat unit) |
| 240.00 °C | *C(=O)NNC(=O)c1ccc([Si](c2ccccc2)(c2ccccc2)c2ccc(C(=O)NNC(=O)c3ccc(*)nc3)cc2)cc1 (repeat unit) |
| 2.00 °C | *Oc1ccc(CC(NC(=O)CCc2ccc(OC(=O)CCCCCCCCC(*)=O)cc2)C(=O)OCCOCCOCC)cc1 (repeat unit) |
| 28.90 °C | *O[Si](*)(C)CC[Si](OCCOC)(OCCOC)OCCOC (repeat unit) |
| 228.50 °C | *Nc1ccc(NC(=O)c2ccc(NC(=O)CCCCCCCCC(=O)Nc3ccc(C(*)=O)cc3)cc2)cc1C(=O)OCCCCCCCCCCCC (repeat unit) |
| 105.00 °C | *CC(O)COc1ccc(S(=O)(=O)c2ccc(OCC(O)COc3cccc(O*)c3)cc2)cc1 (repeat unit) |
| 170.00 °C | *c1ccc2c(c1)C(CCCCCC)(CCCCCC)c1cc(-c3ccc4c(c3)c3cc(*)ccc3n4-c3ccccc3)ccc1-2 (repeat unit) |
| 42.00 °C | *CCCCCCCCCNC(=O)CCCCCCCCCCCCCCCCCCC(=O)N* (repeat unit) |
